# From ChEMBL document CHEMBL1153334, “New cyclic peptide proteasome inhibitors” (Bioorg Med Chem Lett, 2009)
# pIC50: −log10 of the molar value.
# Key:
# [1] = Metabolic stability in human plasma assessed as half life after 360 mins; type: ADME, cell-free
# cells [2] = assay: cells
# Description: Inhibition of caspase-like activity of 20S proteasome beta 1 subunit by cell based assay
# cells [3] = assay: cells; remark: listed apart in the source
# Description: Inhibition of trypsin-like activity of 20S proteasome beta 2 subunit by cell based assay
SMILES,half-life [1] [min],pIC50 (cells [2]),pIC50 (cells [3])
COC(=O)/C=C/[C@H](CC(C)C)NC(=O)CC[C@H](NC(=O)[C@H](CC(C)C)NC(=O)[C@H](CC(C)C)C(=O)NC(=O)[C@H](C)N)C(N)=O,73.2,,
COC(=O)/C=C/[C@H](CC(C)C)NC(=O)CC[C@H](NC(=O)[C@H](CC(C)C)NC(=O)[C@H](CC(C)C)C(=O)NC(=O)[C@@H](N)CO)C(N)=O,86.1,,
COC(=O)/C=C/[C@H](CC(C)C)NC(=O)CC[C@@H]1NC(=O)[C@H](CC(C)C)NC(=O)[C@H](CC(C)C)C(=O)NC(=O)CNC1=O,> 360,6.66,5.23
COC(=O)/C=C/[C@H](CC(C)C)NC(=O)CC[C@H](NC(=O)[C@H](CC(C)C)NC(=O)[C@H](CC(C)C)C(=O)NC(=O)CN)C(N)=O,48.5,,
COC(=O)/C=C/[C@H](CC(C)C)NC(=O)CC[C@H](NC(=O)[C@H](CC(C)C)NC(=O)[C@H](CC(C)C)C(=O)NC(=O)[C@@H](N)C(C)C)C(N)=O,117,,

# Further lines, results first:
half-life [1] [min],pIC50 (cells [2]),pIC50 (cells [3]),SMILES
> 360,6.91,,COC(=O)/C=C/[C@H](CC(C)C)NC(=O)CC[C@@H]1NC(=O)[C@H](CC(C)C)NC(=O)[C@H](CC(C)C)C(=O)NC(=O)[C@H](C)NC1=O
> 360,6.56,,COC(=O)/C=C/[C@H](CC(C)C)NC(=O)CC[C@@H]1NC(=O)[C@H](CC(C)C)NC(=O)[C@H](CC(C)C)C(=O)NC(=O)[C@H](C(C)C)NC1=O
> 360,7.04,5.16,COC(=O)/C=C/[C@H](CC(C)C)NC(=O)CC[C@@H]1NC(=O)[C@H](CC(C)C)NC(=O)[C@H](CC(C)C)C(=O)NC(=O)[C@H](CO)NC1=O
